The NIST ThermoML archive (doi:10.1021/je7005133)

c1cc2c3c(cccc3c1)CC2 [acenaphthene]
Crystal
Conditions	vapor or sublimation pressure [kPa]
297.6 K	0.00029
299.7 K	0.000362
300.5 K	0.000413
301.6 K	0.00044
302.8 K	0.000508
306.1 K	0.000693
310.7 K	0.00112
315.6 K	0.0018

C1=Cc2cccc3cccc1c23 [acenaphthylene]
Crystal
Conditions	vapor or sublimation pressure [kPa]
297.4 K	0.000488
297.6 K	0.000531
304.6 K	0.00105
304.7 K	0.00108
306.7 K	0.00114
311.9 K	0.00182
314.8 K	0.00345
318.5 K	0.00345
318.6 K	0.00347
319.7 K	0.00414

c1ccc2cc3ccccc3cc2c1 [anthracene]
Crystal
Conditions	vapor or sublimation pressure [kPa]
322.2 K	1.6e-05
327 K	2.6e-05
329.1 K	3.33e-05
333.4 K	4.91e-05
336.3 K	7.2e-05
338.7 K	9.43e-05
340.4 K	0.00011
341.2 K	0.000119
342.3 K	0.000131
343.6 K	0.000141
344.2 K	0.000164
346.4 K	0.000192
348.2 K	0.00026

c1ccc2c(c1)cc1ccc3cccc4ccc2c1c34 [benzo[a]pyrene]
Crystal
Conditions	vapor or sublimation pressure [kPa]
392.3 K	7.31e-05
393.5 K	7.96e-05
397.8 K	0.000129
400.8 K	0.000167
402.3 K	0.00018
405.2 K	0.000217
406.6 K	0.000273
411.5 K	0.000394
411.8 K	0.000418
415.1 K	0.000494
415.5 K	0.000537
419 K	0.000697
419.7 K	0.000733
421.2 K	0.000785
423.8 K	0.00098
423.9 K	0.00102

c1ccc2c(c1)ccc1c3ccccc3ccc21 [chrysene]
Crystal 2
Conditions	vapor or sublimation pressure [kPa]
372.4 K	1.74e-05
380.7 K	3.72e-05
385.2 K	5.37e-05
389.2 K	7.61e-05
389.4 K	7.5e-05
393.6 K	0.000103
394.2 K	0.000136
396.1 K	0.000148
398.1 K	0.000168
398.2 K	0.000158
400 K	0.000202
400.4 K	0.000212
402.8 K	0.000263
403 K	0.000254
404.8 K	0.000277
404.9 K	0.000292
405.1 K	0.000306
406.8 K	0.000336
408.6 K	0.000379

c1ccc2c(c1)-c1cccc3cccc-2c13 [fluoranthene]
Crystal
Conditions	vapor or sublimation pressure [kPa]
326.8 K	3.96e-05
326.9 K	4.11e-05
331 K	6.16e-05
331.8 K	6.32e-05
336.7 K	0.000117
338.7 K	0.000129
338.8 K	0.000131
338.9 K	0.000144
340.2 K	0.000154
342.5 K	0.000206
343.9 K	0.000248
345.3 K	0.000258
348 K	0.00033
348.5 K	0.000341
350.9 K	0.000463
354.1 K	0.00058
359.2 K	0.00105

c1ccc2c(c1)Cc1ccccc1-2 [fluorene]
Crystal
Conditions	vapor or sublimation pressure [kPa]
298 K	6.61e-05
298.1 K	6.52e-05
299.8 K	8.4e-05
301.4 K	9.88e-05
304.3 K	0.000141
306.6 K	0.000178
306.9 K	0.000195
308.1 K	0.000218
309.8 K	0.000261
311.2 K	0.000301
314.3 K	0.000414
316 K	0.00046
316.5 K	0.000531
317.3 K	0.000581
317.6 K	0.000613
320.3 K	0.00076
324.4 K	0.00127

c1cc2cccc3c4cccc5cccc(c(c1)c23)c54 [perylene]
Crystal
Conditions	vapor or sublimation pressure [kPa]
390 K	1.37e-05
390.5 K	1.47e-05
391.2 K	1.49e-05
393.7 K	2.15e-05
397.7 K	3.15e-05
398.3 K	3.03e-05
402.2 K	4.58e-05
402.8 K	4.76e-05
403.7 K	5.19e-05
405.7 K	6.67e-05
406.6 K	7.2e-05
406.8 K	7.03e-05
410.5 K	0.0001
411.3 K	0.000102
412.7 K	0.000132
413.4 K	0.000142
414.4 K	0.000148
418.4 K	0.000196
428.6 K	0.000443
432.4 K	0.000606

c1cc2ccc3cccc4ccc(c1)c2c34 [pyrene]
Crystal
Conditions	vapor or sublimation pressure [kPa]
322 K	8.95e-06
337.1 K	5.31e-05
342.1 K	9.43e-05
347.1 K	0.000147
352.3 K	0.000227
356.8 K	0.000339
362.1 K	0.000599
372 K	0.0013
381.4 K	0.00281

c1ccc2c(c1)c1ccccc1c1ccccc21 [triphenylene]
Crystal
Conditions	vapor or sublimation pressure [kPa]
368.4 K	1.7e-05
377.4 K	4.48e-05
377.7 K	4.51e-05
378 K	4.64e-05
386.7 K	0.000116
390.7 K	0.000178
394.9 K	0.000264
395 K	0.000258
399.1 K	0.000375
